Row | logP | Structure (SMILES)
1 | 3.19 | COc1ccc(NC(=O)C2CCCCC2c2nc(SC)n[nH]2)cc1 (stereo unspecified)
2 | 2.13 | CCCNC(=O)C1C2C=CC(C2)C1c1nc(SC)n[nH]1 (stereo unspecified)
3 | 3.12 | CSc1n[nH]c(C2C3C=CC(C3)C2C(=O)NCCc2ccccc2)n1 (stereo unspecified)
4 | 3.67 | CSc1n[nH]c(C2C3C=CC(C3)C2C(=O)Nc2ccc(Br)cc2)n1 (stereo unspecified)
5 | 2.57 | CCC(C)NC(=O)C1C2C=CC(C2)C1c1nc(SC)n[nH]1 (stereo unspecified)
6 | 2.55 | CCCCNC(=O)C1C2C=CC(C2)C1c1nc(SC)n[nH]1 (stereo unspecified)
7 | 3.29 | CSc1n[nH]c(C2C3C=CC(C3)C2C(=O)Nc2cccc(C)c2)n1 (stereo unspecified)
8 | 3.44 | CSc1n[nH]c(C2C3C=CC(C3)C2C(=O)Nc2ccccc2Cl)n1 (stereo unspecified)
9 | 2.8 | CSc1n[nH]c(C2C3C=CC(C3)C2C(=O)NCc2ccccc2)n1 (stereo unspecified)
10 | 2.91 | CSc1n[nH]c(C2C3C=CC(C3)C2C(=O)Nc2ccccc2)n1 (stereo unspecified)
11 | 2.86 | COc1ccc(NC(=O)C2C3C=CC(C3)C2c2nc(SC)n[nH]2)cc1 (stereo unspecified)

Further lines, the compound ahead of its results:

Row | Structure (SMILES) | logP
12 | CSc1n[nH]c(C2CCCCC2C(=O)Nc2ccc(Br)cc2)n1 (stereo unspecified) | 4.02
13 | CSc1n[nH]c(C2C3C=CC(C3)C2C(=O)NC2CCCCC2)n1 (stereo unspecified) | 3.03
14 | CCC(C)NC(=O)C1CCCCC1c1nc(SC)n[nH]1 (stereo unspecified) | 2.97
15 | CSc1n[nH]c(C2CCCCC2C(=O)NC2CCCCC2)n1 (stereo unspecified) | 3.48
16 | CSc1n[nH]c(C2CCCCC2C(=O)Nc2ccccc2Cl)n1 (stereo unspecified) | 3.84
17 | CCCNC(=O)C1CCCCC1c1nc(SC)n[nH]1 (stereo unspecified) | 2.55
18 | CSc1n[nH]c(C2CCCCC2C(=O)NCc2ccccc2)n1 (stereo unspecified) | 3.17
19 | CSc1n[nH]c(C2CCCCC2C(=O)Nc2ccccc2)n1 (stereo unspecified) | 3.3
20 | CCCCNC(=O)C1CCCCC1c1nc(SC)n[nH]1 (stereo unspecified) | 2.97
21 | CSc1n[nH]c(C2CCCCC2C(=O)NCCc2ccccc2)n1 (stereo unspecified) | 3.51

Reference: the SangsterLogP compilation
